Test results reported in patent publication US20150224164A1, “TREATMENT OF AUTISM SPECTRUM DISORDERS USING GLYCYL-L-2-METHYLPROLYL-L-GLUMATIC ACID” (Neuren Pharmaceuticals Limited, priority 2013, published 2015).
Entries after “also recorded” stand apart in the source; their conditions may differ. Where a SMILES comes first, the peptide text is derived from it.

Columns and labels:
fmr1 knockout mice = test: Elevated plus maze, fmr1 knockout mice; format: in vivo, mouse
Description: G-2-MePE was administered at the dose of 100 mg/kg i.p. in 0.1 ml saline, once daily for 28 days. Vehicle-treated animals were injected with 0.1 ml saline daily for 28 days. Thereafter, drug or vehicle treatments were stopped and animals were tested on successive days until all tests were completed. Finally, the animals were sacrificed for determining expression of pAkt and pERK The Elevated Plus Maze (EPM) is a further test system for examining anxiety and locomotor activity. The EPM was built according to the description of Lister (Lister 1987). Briefly, the maze consisted of two open and two closed arms opposite each other in a plus shape, raised above floor height. The open arms were more exposed and therefore more anxiogenic. Wild-type mice therefore spent more time in the closed arms and visited them more. Mice were tested for 5 min and their behaviour was recorded. Measures taken included time spent in the arms and the center of the maze, and number of arm entries.

[1] = system: layer 5 cortical neurons of MeCP2-/y mice; test: Whole-cell recordings of spontaneous EPSCs in acute brain slices (Example 10); format: in vivo, mouse; details: 20 mg/kg i.p. daily P15 to P28-P32; vs vehicle
Description: For the survival measurements, the nocturnal activity analysis and the immunoblot analysis, G-2-MePE (synthesised Albany Molecular Research Inc. (Albany, N.Y.) and supplied by Neuren Pharmaceuticals Limited) is administered daily via intra-peritoneal injections (20 mg/kg, vehicle=saline, 0.01% BSA). The treatment starts at P15 and is maintained throughout the course of the experiments. For intracellular physiology experiments, the mice are injected daily with G-2-MePE (20 mg/kg body weight, vehicle=saline, 0.01% BSA) for 2 weeks, from P15 to P28-P32 when they are used for acute slice preparation. For optical imaging experiments, mice are injected with G-2-MePE (20 mg/kg body weight, vehicle=saline, 0.01% BSA) daily from the day of the lid suture to the day of imaging. […]
Borosilicate pipettes (3-5 MΩ, WPI) are pulled using a Sutter P-80 puller (Sutter Instruments). Cells are visualized with an Achroplan 40× water-immersion lens with infrared-DIC optics (Zeiss) and detected with an infrared camera (Hamamatsu) projecting to a video monitor. […] Then in current clamp ˜10 pulses (500 ms, 40-140 pA at 10 pA increments), are applied to quantify evoked firing rates and cellular excitability. […] Analysis is performed using a custom software package written in Matlab, with all events detected according to automated thresholds and blindly verified for each event individually by the experimenter.

[2] = system: subjects with an Autism Spectrum Disorder; test: Placebo-controlled crossover study in subjects with Autism Spectrum Disorder (Example 16); format: in vivo, human
Excerpt: To determine whether G-2-MePE can treat symptoms of ASD, we carry out a study in human beings with ASD. Twenty subjects with an Autism Spectrum Disorder are recruited. Subjects are male and aged between 16 and 65 years (Mean=18.1 SD=3.4). All subjects have an IQ>60 and strict DSM-IV-TR diagnosis of Autistic Disorder or Asperger Disorder. Subjects also meet criteria for an Autism Spectrum Disorder according the ADI-R and ADOS-G instruments, and fulfill the proposed DSM-V criteria for and Autism Spectrum Disorder. Subjects are instructed that concomitant medications are to be stable for at least six weeks prior to study. Subjects receiving medication to treat signs of inattention are tested in the morning and instructed to take their medication in the afternoon. Subjects better treated with atypical anti-psychotic medications indicated for autism are excluded. Subjects are screened for known genetic disorders including and those with Fragile X Syndrome or tuberous sclerosis excluded. Subjects with uncontrolled epilepsy are excluded. The study is a double blind placebo-controlled crossover study with three phases. Subjects enter each phase of the crossover in a randomized order. In the test phases, subjects receive either placebo, 10 mg/kg T.I.D oral G-2-MePE for five days, or 30 mg/kg T.I.D. oral G-2-MePE. Each phase of the crossover is separated by a washout period of fourteen days. Subjects are tested at baseline using the following instruments: Wechsler IQ, Abberant Behavior Checklist Community Edition (ABC), […], Yale-Brown Obsessive Compulsive Scale (YBOCS) compulsion subscale, Social Responsiveness Scale (SRS), Clinical Global Impression of Severity (CGI-S) and their […] complete the Caregiver Strain Questionnaire (CSQ). Subjects are administered two tasks-the Reading the Mind in the Eyes Test-Revised (RMET) and an Eye Tracking (ET) task, as well as Clinical Global Impression of Improvement (CGI-I). Tasks commence two hours following administration of placebo or either dose of G-2-MePE. The RMET is a computer based task that assesses one's ability to read emotions from the eyes of subtle affective facial expressions and is a widely used test of emotion recognition in patients with autism (2001). Importantly, the RMET is capable of detecting improvement with even a single dose of a pharmacological agent (Guastella et al., 2010). Eye tracking issues are characteristic of patients with autism who spend less time looking at the eyes of photographs of human faces. Again, a single administration of a pharmacologic intervention can ameliorate eye tracking deficits in autism ([…] et al, 2010). Adverse events are also recorded using standard safety measures. Statistically, the effect of treatment with G-2-MePE is analysed by conducting a repeated analysis of covariance (ANCOVA) on the effect of treatment on change from baseline scores.

With `C[C@@]1(C(=O)N[C@@H](CCC(=O)O)C(=O)O)CCCN1C(=O)CN` [Example G-2-MePE, Glycyl-L-2-methylprolyl-L-glutamic acid] (HELM PEPTIDE1{G.[C[C@@]1(C(=O)[*:2])CCCN1[*:1]].E}$$$$V2.0) the “percent open arm entries” value (fmr1 knockout mice; 100 mg/kg i.p. 28 days) was “completely normalised”, the “time spent in the centre” value (fmr1 knockout mice; 28-days treatment) was “normalised” and the “spontaneous EPSC amplitude” value [1] was “significantly larger in amplitude”. The “percent correct responses on the RMET” value ([2]; 30 mg/kg T.I.D. oral) was “increases the percent correct responses”, the “Serious Adverse Events” value ([2]; 10 or 30 mg/kg T.I.D. oral) was “No Serious Adverse Events” and the “adverse events / tolerability” value ([2]; 10 or 30 mg/kg T.I.D. oral) was “no more adverse events than were present during treatment with placebo; also recorded: well tolerated”. For the same compound, the “performance of the RMET test, overall” value ([2]; human, in vivo) was “significant overall improvement” and the “time spent looking at the eye region in the ET test” value ([2]; human, in vivo) was “significant overall improvement”.
